Patent US12545653B2, “Compound as PPAR agonist and application thereof” (USA Elixiria Biotech Inc., priority 2019, dated 2026)
Several values for one entry are separate records, joined by “and”; a condition that tells them apart may be missing. Equal entries are not always repeated.

Columns and labels:
APP/PS1 transgenic mice = assay: Alzheimer's disease model, eight-arm radial water maze and brain gene expression; assay type: in vivo, mouse; conditions: for number of errors in water maze on the third day: 5 on the first day
klotho gene = assay: In vivo brain transcriptional activity of klotho gene (RT-PCR of brain mRNA); parameters: species or system mouse; conditions: 10 mg/kg body weight/day tail vein; for mRNA level of klotho gene in the brain of the mouse relative to vehicle control group: after 10 days of continuous injection; for fold induction at 10 mg/kg: Mus musculus, iv, 720 h, after 30 days of continuous injection, read-out: mRNA level of klotho gene in the brain of the mouse relative to vehicle control group
Procedure: To verify this hypothesis, adult male Kunming mice were used in the experiments. […] The injection volume is 8 ml/kg body weight. Dimethyl sulfoxide (DMSO) was used as a vehicle control of the compounds. […] The RNA was then reverse-transcribed to the cDNA, and quantified by SYBR Green fluorescence quantitative PCR kit (HaiGene) and a quantitative PCR system (Bio-Rad Min-Opticon Type 2) were used for real-time fluorescent quantitative polymerase chain reaction (RT-PCR). The mouse gene primers were design as follows: • KLOTHO-forward 5′-[…]-3′; • LOTHO-reverse 5′-[…]-3′; • GAPDH-forward 5′-[…]-3′; • GAPDH-reverse 5′-[…]-3′.
Data analysis was performed using the 2^−ΔΔct method. Semi-quantitative values of gene expression were then normalized by the control mean.

PPARγ = molecular target: T1, PPARγ (Homo sapiens, UniProt P37231); assay: In vitro transcriptional activity of PPARγ gene (PPRE-luciferase reporter, HEK 293 T cells); assay type: cell-based; conditions: HEK 293 T cells transfected with PPARγ expression and PPRE-luc plasmids, 21 hours; read-out: EC50 of PPARγ gene activation
T1 construct: expressed in transfected cells; host or cells: HEK 293 T cells
T1 sequence (P37231 1-505): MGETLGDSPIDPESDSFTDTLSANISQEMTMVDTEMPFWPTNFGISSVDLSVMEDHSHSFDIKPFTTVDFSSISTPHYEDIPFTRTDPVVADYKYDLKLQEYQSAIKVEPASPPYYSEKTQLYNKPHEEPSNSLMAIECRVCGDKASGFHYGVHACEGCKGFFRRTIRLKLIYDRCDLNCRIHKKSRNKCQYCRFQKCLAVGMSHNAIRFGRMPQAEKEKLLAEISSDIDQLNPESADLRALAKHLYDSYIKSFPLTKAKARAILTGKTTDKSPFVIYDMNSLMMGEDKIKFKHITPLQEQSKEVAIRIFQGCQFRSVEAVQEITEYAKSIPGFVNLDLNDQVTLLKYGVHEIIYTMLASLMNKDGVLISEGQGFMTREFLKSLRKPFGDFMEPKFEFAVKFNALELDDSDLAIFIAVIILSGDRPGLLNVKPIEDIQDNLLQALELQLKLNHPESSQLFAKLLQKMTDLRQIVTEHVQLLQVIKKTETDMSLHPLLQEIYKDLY

[1] = 10 mg/kg body weight/day, 30 days, RT-PCR
[2] = 30 days in food, 10 mg/kg body weight/day (donepezil 3 mg/kg body weight/day)

Structure (SMILES)	expression level of Bcl-xl gene in cerebral cortex and hippocampus compared with disease control group (APP/PS1 transgenic mice; [1])	expression level of GluN2B gene in cerebral cortex and hippocampus compared with disease control group (APP/PS1 transgenic mice; [1])	expression level of Gng11 gene in cerebral cortex and hippocampus compared with disease control group (APP/PS1 transgenic mice; [1])	expression level of MnSOD gene in cerebral cortex and hippocampus compared with disease control group (APP/PS1 transgenic mice; [1])	expression level of Prx-2 gene in cerebral cortex and hippocampus compared with disease control group (APP/PS1 transgenic mice; [1])	expression level of klotho gene in cerebral cortex and hippocampus compared with disease control group (APP/PS1 transgenic mice; [1])	number of errors in water maze on the third day (APP/PS1 transgenic mice; [2])	reduction in the number of errors (reference memory), third day compared with first day (APP/PS1 transgenic mice; 30 days in food, 10 mg/kg body weight/day (donepezil 3 mg/kg body weight/day), eight-arm water maze)	mRNA level of klotho gene in the brain of the mouse relative to vehicle control group (klotho gene)	fold induction at 10 mg/kg (klotho gene)	EC50 (PPARγ)
CCc1ccc(CC/C=C/c2ccc3c(c2)C(=O)CC3)cc1 [ELB00824, (E)-6-(4-(4-ethylphenyl)but-1-en-1-yl)-2,3-dihydro-1H-inden-1-one]	doubled	doubled	tripled	tripled or quadrupled	tripled or quadrupled	9 folds	~1	significant	more than twice	> 5	< 6.4 µM and 4.7 µM
CCc1ccc(CC/C=C/c2ccc3c(c2)OCCC3=O)cc1 [ELB001045, (E)-7-(4-(4-ethylphenyl)but-1-en-1-yl)chroman-4-one]							comparable to that of ELB00824		more than twice	> 5	< 6.4 µM and 3.5 µM
CCc1ccc(CC/C=C/c2ccc3c(c2)C(=O)COC3)cc1 [ELB001046, (E)-6-(4-(4-ethylphenyl)but-1-en-1-yl)isochroman-4-one]							comparable to that of ELB00824		more than twice	> 5	< 6.4 µM
CCc1ccc(OC/C=C/c2ccc3c(c2)C(=O)CC3)cc1 [ELB001115, (E)-6-(3-(4-ethylphenoxy)prop-1-en-1-yl)-2,3-dihydro-1H-inden-1-one]							comparable to that of ELB00824		more than twice	> 5	< 6.4 µM and 4.8 µM
COc1ccc(CC/C=C/c2ccc3c(c2)C(=O)CC3)cc1 [ELB001116, (E)-6-(4-(4-methoxyphenyl)but-1-en-1-yl)-2,3-dihydro-1H-inden-1-one]							comparable to that of ELB00824		more than twice	> 5	< 6.4 µM
CCc1ccc(CC/C=C/c2ccc3c(c2)C(=O)CC3)nc1 [ELB001125, (E)-6-(4-(5-ethylpyridin-2-yl)but-1-en-1-yl)-2,3-dihydro-1H-inden-1-one]							comparable to that of ELB00824		more than twice	> 5	< 6.4 µM
